Test results published in patent EP4722207A1, “OXOISOINDOLINYL-SUBSTITUTED TETRAHYDROPYRIMIDINEDIONE DERIVATIVE AND USE THEREOF” (Gluetacs Therapeutics (Shanghai) Co., Ltd., priority 2023, dated 2024).

How the values were obtained:
Assay type in all cases: cell-based
IKZF2 = molecular target: T1, IKZF2 (Homo sapiens, UniProt Q96SW2+Q9UKS7); assay: Western-blot assay, substrate protein degradation in hPBMCs: IKZF2; conditions: for substrate protein remaining % IKZF2: 24 hours of compound treatment, 50 nM and 500 nM; for IKZF2 substrate protein remaining %: compounds at 50 nM and 500 nM, 24 hours
T1 construct: effects of the compounds of the present disclosure on the expression of target proteins in cells; endogenous in cells; host or cells: human PBMCs (hPBMCs)
T1 sequence (Q9UKS7 whole entry): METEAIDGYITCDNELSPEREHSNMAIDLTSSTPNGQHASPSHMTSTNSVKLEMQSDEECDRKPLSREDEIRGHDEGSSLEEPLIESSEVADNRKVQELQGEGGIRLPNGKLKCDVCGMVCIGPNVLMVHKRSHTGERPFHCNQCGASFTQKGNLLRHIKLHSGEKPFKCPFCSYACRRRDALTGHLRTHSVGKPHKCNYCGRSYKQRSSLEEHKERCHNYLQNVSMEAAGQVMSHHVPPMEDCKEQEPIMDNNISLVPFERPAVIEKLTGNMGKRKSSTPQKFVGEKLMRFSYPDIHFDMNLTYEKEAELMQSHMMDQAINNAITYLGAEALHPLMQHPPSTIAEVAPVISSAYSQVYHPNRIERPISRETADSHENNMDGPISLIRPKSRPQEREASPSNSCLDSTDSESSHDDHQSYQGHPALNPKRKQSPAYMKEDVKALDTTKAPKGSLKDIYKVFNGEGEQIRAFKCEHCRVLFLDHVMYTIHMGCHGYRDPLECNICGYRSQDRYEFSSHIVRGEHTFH
T1 sequence (Q96SW2 whole entry): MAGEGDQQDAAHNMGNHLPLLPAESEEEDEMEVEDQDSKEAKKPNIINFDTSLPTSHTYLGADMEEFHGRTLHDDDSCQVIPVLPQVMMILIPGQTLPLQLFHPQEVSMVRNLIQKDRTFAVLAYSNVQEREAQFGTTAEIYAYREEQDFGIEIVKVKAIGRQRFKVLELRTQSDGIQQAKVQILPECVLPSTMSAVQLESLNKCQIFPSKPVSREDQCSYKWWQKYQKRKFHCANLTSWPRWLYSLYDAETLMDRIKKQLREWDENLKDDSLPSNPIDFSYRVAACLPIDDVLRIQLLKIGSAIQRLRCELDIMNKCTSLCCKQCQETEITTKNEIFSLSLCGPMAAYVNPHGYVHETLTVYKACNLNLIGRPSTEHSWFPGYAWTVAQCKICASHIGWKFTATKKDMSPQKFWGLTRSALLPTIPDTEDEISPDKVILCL
T1 sequence (Q16531 whole entry partner): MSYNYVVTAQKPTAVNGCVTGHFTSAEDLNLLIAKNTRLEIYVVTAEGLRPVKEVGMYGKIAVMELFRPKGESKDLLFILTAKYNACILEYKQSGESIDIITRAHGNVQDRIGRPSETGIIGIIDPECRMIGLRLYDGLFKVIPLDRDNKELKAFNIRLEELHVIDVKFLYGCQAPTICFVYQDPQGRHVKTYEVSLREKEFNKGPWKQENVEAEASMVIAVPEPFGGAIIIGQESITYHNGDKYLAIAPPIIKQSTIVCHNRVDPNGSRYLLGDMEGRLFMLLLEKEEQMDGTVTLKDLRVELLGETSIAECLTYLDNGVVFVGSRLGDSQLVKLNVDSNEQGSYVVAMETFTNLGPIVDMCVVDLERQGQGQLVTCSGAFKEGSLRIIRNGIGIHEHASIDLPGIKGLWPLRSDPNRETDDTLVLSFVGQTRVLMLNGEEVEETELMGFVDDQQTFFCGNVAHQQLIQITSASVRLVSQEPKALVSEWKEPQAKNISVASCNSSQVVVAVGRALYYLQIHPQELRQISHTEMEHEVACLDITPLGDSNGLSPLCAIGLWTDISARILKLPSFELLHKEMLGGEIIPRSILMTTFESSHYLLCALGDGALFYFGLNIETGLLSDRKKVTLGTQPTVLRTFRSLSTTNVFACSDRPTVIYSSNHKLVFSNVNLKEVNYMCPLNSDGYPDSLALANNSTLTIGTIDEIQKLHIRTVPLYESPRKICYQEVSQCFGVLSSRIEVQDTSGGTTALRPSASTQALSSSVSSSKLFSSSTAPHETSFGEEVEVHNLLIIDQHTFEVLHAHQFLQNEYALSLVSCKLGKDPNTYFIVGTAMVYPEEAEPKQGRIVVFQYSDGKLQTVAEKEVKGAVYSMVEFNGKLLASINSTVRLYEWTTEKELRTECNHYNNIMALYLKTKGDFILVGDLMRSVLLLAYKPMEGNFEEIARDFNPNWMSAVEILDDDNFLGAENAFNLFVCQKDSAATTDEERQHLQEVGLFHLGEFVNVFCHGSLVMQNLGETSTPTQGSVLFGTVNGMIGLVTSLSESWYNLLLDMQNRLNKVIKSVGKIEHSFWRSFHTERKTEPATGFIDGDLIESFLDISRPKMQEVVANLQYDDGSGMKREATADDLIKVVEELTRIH
Description: (§1) Conventional Western blot assay was performed to evaluate the effects of the compounds of the present disclosure on the expression of target proteins in cells. • (1) Cell Seeding and Protein Harvesting: Human peripheral blood mononuclear cells (hPBMCs) at a density of 1x10^6 cells/mL were thawed according to the PBMC Recovery Protocol (Milecell Biotechnologies Inc, Shanghai). […] After 24 hours of compounds treatment, cells were harvested and lysed in RIPA protein lysate containing protease inhibitors on ice for 30 min, followed by centrifugation. The supernatant was aspirated as the extracted total cell protein. The protein concentration of the supernatant was determined using the conventional BCA (Bicinchoninic Acid) assay. • (2) To the collected supernatant, 5X SDS sample loading buffer was added, followed by denaturation at 95°C for 5 minutes. The denatured samples were then separated by SDS-PAGE electrophoresis on a polyacrylamide gel. Proteins were transferred to a nitrocellulose membrane (0.45 µm NC membrane), blocked with blocking buffer at room temperature for 1 hour, and subjected to antibody incubation and development procedures according to the antibody manufacturer's instructions (Cell Signaling Technology).
(§2) Half-Maximal Degradation Concentration value (the drug concentration required for degrading proteins by 50%, abbreviated as DC50) reads method: comparing the grayscale values of Western blot bands from drug-treated samples with those from blank DMSO-treated controls, and identifying the drug concentration range at which the grayscale value is half that of the DMSO-treated control bands.
(§3) DC50 values can be calculated using ImageJ software to measure grayscale values of Western blot bands from drug-treated samples. The concentration-response curve is fitted to estimate the drug concentration corresponding to half the grayscale value.
(§4) Target protein remaining (%) refers to the percentage of target protein remaining in cells after treatment with protein degrader compounds.
(§5) Calculation method for target protein remaining (%): Use ImageJ software to measure grayscale values of Western blot bands from drug (protein degrader)-treated samples. The grayscale value of drug-treated bands is divided by that of internal control protein bands, and the resulting quotient is normalized to obtain the relative percentage of remaining target protein after protein degrader treatment. Target protein degradation rate(%) = 1−target protein remaining(%). [formula]

IKZF3 = molecular target: T2, IKZF3 (Homo sapiens, UniProt Q96SW2+Q9UKT9); assay: Western-blot assay, substrate protein degradation in hPBMCs: IKZF3; conditions: for substrate protein remaining % IKZF3: 24 hours of compound treatment, 50 nM and 500 nM; for IKZF3 substrate protein remaining %: compounds at 50 nM and 500 nM, 24 hours
T2 construct: effects of the compounds of the present disclosure on the expression of target proteins in cells; endogenous in cells; host or cells: human PBMCs (hPBMCs)
T2 sequence (Q9UKT9 whole entry): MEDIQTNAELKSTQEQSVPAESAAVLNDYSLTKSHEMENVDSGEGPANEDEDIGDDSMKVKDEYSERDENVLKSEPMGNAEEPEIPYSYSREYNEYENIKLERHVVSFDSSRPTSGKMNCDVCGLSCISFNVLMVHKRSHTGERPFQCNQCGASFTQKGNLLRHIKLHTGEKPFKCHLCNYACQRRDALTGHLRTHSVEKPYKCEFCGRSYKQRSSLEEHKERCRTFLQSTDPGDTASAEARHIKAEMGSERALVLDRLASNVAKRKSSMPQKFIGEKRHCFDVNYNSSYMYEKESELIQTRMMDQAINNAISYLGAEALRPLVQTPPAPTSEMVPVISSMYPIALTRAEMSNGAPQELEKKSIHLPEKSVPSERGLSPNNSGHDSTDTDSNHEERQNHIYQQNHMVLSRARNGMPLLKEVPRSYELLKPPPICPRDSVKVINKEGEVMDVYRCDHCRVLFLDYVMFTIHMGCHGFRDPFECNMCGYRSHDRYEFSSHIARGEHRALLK
T2 sequence (Q96SW2 whole entry): as the sequence (Q96SW2 whole entry) above
T2 sequence (Q16531 whole entry partner): as the sequence (Q16531 whole entry partner) above
Description: as §1, §2, §3, §4, §5

IKZF1 = molecular target: T3, IKZF1 (Homo sapiens, UniProt Q13422+Q96SW2); assay: Western-blot assay, substrate protein degradation in hPBMCs: IKZF1; conditions: for substrate protein remaining % IKZF1: 24 hours of compound treatment, 50 nM and 500 nM; for IKZF1 substrate protein remaining %: compounds at 50 nM and 500 nM, 24 hours
T3 construct: effects of the compounds of the present disclosure on the expression of target proteins in cells; endogenous in cells; host or cells: human PBMCs (hPBMCs)
T3 sequence (Q13422 whole entry): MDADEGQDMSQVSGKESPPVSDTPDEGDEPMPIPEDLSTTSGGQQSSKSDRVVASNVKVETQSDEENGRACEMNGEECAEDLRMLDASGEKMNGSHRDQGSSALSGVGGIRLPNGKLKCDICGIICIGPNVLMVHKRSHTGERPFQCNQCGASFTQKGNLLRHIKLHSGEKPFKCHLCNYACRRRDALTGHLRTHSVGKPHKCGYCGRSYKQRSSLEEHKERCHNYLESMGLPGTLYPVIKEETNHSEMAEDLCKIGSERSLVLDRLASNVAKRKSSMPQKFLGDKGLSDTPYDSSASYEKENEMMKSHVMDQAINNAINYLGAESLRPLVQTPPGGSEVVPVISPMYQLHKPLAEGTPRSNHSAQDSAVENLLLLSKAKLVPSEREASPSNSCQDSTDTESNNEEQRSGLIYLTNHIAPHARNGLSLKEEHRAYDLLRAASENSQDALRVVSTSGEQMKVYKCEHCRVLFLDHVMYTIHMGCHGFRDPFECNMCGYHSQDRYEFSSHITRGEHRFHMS
T3 sequence (Q96SW2 whole entry): as the sequence (Q96SW2 whole entry) above
T3 sequence (Q16531 whole entry partner): as the sequence (Q16531 whole entry partner) above
Description: as §1, §2, §3, §4, §5

CK1α = molecular target: T4, CK1α (Homo sapiens, UniProt P48729+Q96SW2); assay: Western-blot assay, substrate protein degradation in hPBMCs: CK1α; conditions: for substrate protein remaining % CK1α: 24 hours of compound treatment, 50 nM and 500 nM; for CK1α substrate protein remaining %: compounds at 50 nM and 500 nM, 24 hours
T4 construct: effects of the compounds of the present disclosure on the expression of target proteins in cells; endogenous in cells; host or cells: human PBMCs (hPBMCs)
T4 sequence (P48729 whole entry): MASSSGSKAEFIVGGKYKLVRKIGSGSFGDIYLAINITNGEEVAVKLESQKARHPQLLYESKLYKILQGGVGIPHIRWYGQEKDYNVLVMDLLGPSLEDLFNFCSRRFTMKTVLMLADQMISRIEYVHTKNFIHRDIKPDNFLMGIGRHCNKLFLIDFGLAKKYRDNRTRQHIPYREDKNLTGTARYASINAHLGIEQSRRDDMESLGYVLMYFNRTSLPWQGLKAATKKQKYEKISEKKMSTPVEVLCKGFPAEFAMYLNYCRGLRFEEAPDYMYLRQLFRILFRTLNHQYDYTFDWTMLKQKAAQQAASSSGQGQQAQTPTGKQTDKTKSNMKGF
T4 sequence (Q96SW2 whole entry): as the sequence (Q96SW2 whole entry) above
T4 sequence (Q16531 whole entry partner): as the sequence (Q16531 whole entry partner) above
Description: as §1, §2, §3, §4, §5

GSPT1 = molecular target: T5, GSPT1 (Homo sapiens, UniProt P15170+Q96SW2); assay: Western-blot assay, substrate protein degradation in hPBMCs: GSPT1; conditions: for substrate protein remaining % GSPT1: 24 hours of compound treatment, 50 nM and 500 nM; for GSPT1 substrate protein remaining %: compounds at 50 nM and 500 nM, 24 hours
T5 construct: effects of the compounds of the present disclosure on the expression of target proteins in cells; endogenous in cells; host or cells: human PBMCs (hPBMCs)
T5 sequence (P15170 whole entry): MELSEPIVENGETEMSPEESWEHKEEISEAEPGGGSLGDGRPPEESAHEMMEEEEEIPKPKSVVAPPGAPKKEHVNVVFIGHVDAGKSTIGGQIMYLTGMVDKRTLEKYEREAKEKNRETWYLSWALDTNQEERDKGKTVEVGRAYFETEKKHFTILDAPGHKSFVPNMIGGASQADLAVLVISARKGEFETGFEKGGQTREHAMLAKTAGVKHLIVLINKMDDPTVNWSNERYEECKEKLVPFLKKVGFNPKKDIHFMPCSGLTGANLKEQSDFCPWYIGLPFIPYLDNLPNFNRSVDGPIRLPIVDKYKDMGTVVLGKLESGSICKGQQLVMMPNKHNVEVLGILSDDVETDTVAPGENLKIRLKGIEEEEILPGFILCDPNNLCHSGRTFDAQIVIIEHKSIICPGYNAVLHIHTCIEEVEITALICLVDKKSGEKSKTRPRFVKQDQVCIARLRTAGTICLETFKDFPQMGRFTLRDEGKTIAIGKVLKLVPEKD
T5 sequence (Q96SW2 whole entry): as the sequence (Q96SW2 whole entry) above
T5 sequence (Q16531 whole entry partner): as the sequence (Q16531 whole entry partner) above
Description: as §1, §2, §3, §4, §5

WEE1 = molecular target: T6, WEE1 (Homo sapiens, UniProt P30291+Q96SW2); assay: Western-blot assay, substrate protein degradation in hPBMCs: WEE1; conditions: for substrate protein remaining % WEE1: 24 hours of compound treatment, 50 nM and 500 nM; for WEE1 substrate protein remaining %: compounds at 50 nM and 500 nM, 24 hours
T6 construct: effects of the compounds of the present disclosure on the expression of target proteins in cells; endogenous in cells; host or cells: human PBMCs (hPBMCs)
Description: as §1, §2, §3, §4, §5

Row | Structure (SMILES) | substrate protein remaining % IKZF2 (IKZF2) | substrate protein remaining % IKZF3 (IKZF3) | substrate protein remaining % IKZF1 (IKZF1) | substrate protein remaining % CK1α (CK1α) | substrate protein remaining % GSPT1 (GSPT1) | substrate protein remaining % WEE1 (WEE1) | IKZF2 substrate protein remaining % (IKZF2) | IKZF3 substrate protein remaining % (IKZF3) | IKZF1 substrate protein remaining % (IKZF1) | CK1α substrate protein remaining % (CK1α) | GSPT1 substrate protein remaining % (GSPT1) | WEE1 substrate protein remaining % (WEE1)
1 | O=C1CCN(N2Cc3cc(CN4CCN(c5ccncc5)CC4)ccc3C2=O)C(=O)N1 [GT-05437, 1-(1-oxo-5-((4-(pyridin-4-yl)piperazin-1-yl)methyl)isoindolin-2-yl)dihydropyrimidine-2,4(1H,3H)-dione] | B (80%< substrate protein remaining %≤ 100%) | B (80%< substrate protein remaining %≤ 100%) | B (80%< substrate protein remaining %≤ 100%) | B (80%< substrate protein remaining %≤ 100%) | A (0% ≤ substrate protein remaining % ≤ 80%) | B (80%< substrate protein remaining %≤ 100%) | – | – | – | – | – | –
2 | C[C@@H]1CN(C(c2ccccc2)c2ccccc2)CCN1Cc1ccc2c(c1)CN(N1CCC(=O)NC1=O)C2=O [GT-06448, (R)-1-(5-((4-benzhydryl-2-methylpiperazin-1-yl)methyl)-1-oxoisoindolin-2-yl)dihydropyrimidine-2,4(1H,3H)-dione] | – | – | – | – | – | – | A ("A" is defined as 0% ≤ substrate protein remaining % ≤ 80%) | A ("A" is defined as 0% ≤ substrate protein remaining % ≤ 80%) | B ("B" is defined as 80%< substrate protein remaining %≤ 100%) | B ("B" is defined as 80%< substrate protein remaining %≤ 100%) | A ("A" is defined as 0% ≤ substrate protein remaining % ≤ 80%) | B ("B" is defined as 80%< substrate protein remaining %≤ 100%)
3 | O=C1CCN(N2C(=O)c3ccc(CN4CC=C(c5cccc6c(F)cccc56)CC4)cc3C2=O)C(=O)N1 [GT-07687, 2-(2,4-dioxotetrahydropyrimidin-1(2H)-yl)-5-((4-(5-fluoronaphthalen-1-yl)-3,6-dihydropyridin-1(2H)-yl)methyl)isoindoline-1,3-dione] | B (80%< substrate protein remaining %≤ 100%) | B (80%< substrate protein remaining %≤ 100%) | B (80%< substrate protein remaining %≤ 100%) | B (80%< substrate protein remaining %≤ 100%) | A (0% ≤ substrate protein remaining % ≤ 80%) | B (80%< substrate protein remaining %≤ 100%) | – | – | – | – | – | –
4 | O=C1CCN(N2Cc3cc(CN4CCN(c5cccc(C(F)(F)F)n5)CC4)ccc3C2=O)C(=O)N1 [GT-05175, 1-(1-oxo-5-((4-(6-(trifluoromethyl)pyridin-2-yl)piperazin-1-yl)methyl)isoindolin-2-yl)dihydropyrimidine-2,4(1H,3H)-dione] | – | – | – | – | – | – | B ("B" is defined as 80%< substrate protein remaining %≤ 100%) | – | B ("B" is defined as 80%< substrate protein remaining %≤ 100%) | – | A ("A" is defined as 0% ≤ substrate protein remaining % ≤ 80%) | A ("A" is defined as 0% ≤ substrate protein remaining % ≤ 80%)
5 | O=C1CCN(N2Cc3cc(CN4CCN(c5ncc(Cl)cc5Cl)CC4)ccc3C2=O)C(=O)N1 [GT-05356, 1-(5-((4-(3,5-dichloropyridin-2-yl)piperazin-1-yl)methyl)-1-oxoisoindolin-2-yl)dihydropyrimidine-2,4(1H,3H)-dione] | – | – | – | – | – | – | – | B ("B" is defined as 80%< substrate protein remaining %≤ 100%) | B ("B" is defined as 80%< substrate protein remaining %≤ 100%) | B ("B" is defined as 80%< substrate protein remaining %≤ 100%) | – | –
6 | O=C1CCN(N2Cc3cc(CN4CCN(c5nccc(F)c5F)CC4)ccc3C2=O)C(=O)N1 [GT-05357, 1-(5-((4-(3,4-difluoropyridin-2-yl)piperazin-1-yl)methyl)-1-oxoisoindolin-2-yl)dihydropyrimidine-2,4(1H,3H)-dione] | – | – | – | – | – | – | B ("B" is defined as 80%< substrate protein remaining %≤ 100%) | B ("B" is defined as 80%< substrate protein remaining %≤ 100%) | B ("B" is defined as 80%< substrate protein remaining %≤ 100%) | B ("B" is defined as 80%< substrate protein remaining %≤ 100%) | – | –
7 | O=C1CCN(N2C(=O)c3ccc(CN4CCN(c5cc(Cl)ccn5)CC4)cc3C2=O)C(=O)N1 [GT-05354, 5-((4-(4-chloropyridin-2-yl)piperazin-1-yl)methyl)-2-(2,4-dioxotetrahydropyrimidin-1(2H)-yl)isoindoline-1,3-dione] | – | – | – | – | – | – | – | – | B ("B" is defined as 80%< substrate protein remaining %≤ 100%) | B ("B" is defined as 80%< substrate protein remaining %≤ 100%) | A ("A" is defined as 0% ≤ substrate protein remaining % ≤ 80%) | –
8 | O=C1CCN(N2C(=O)c3ccc(CN4CCN(c5ccccn5)CC4)cc3C2=O)C(=O)N1 [GT-05351, 2-(2,4-dioxotetrahydropyrimidin-1(2H)-yl)-5-((4-(pyridin-2-yl)piperazin-1-yl)methyl)isoindoline-1,3-dione] | – | – | – | – | – | – | A ("A" is defined as 0% ≤ substrate protein remaining % ≤ 80%) | B ("B" is defined as 80%< substrate protein remaining %≤ 100%) | B ("B" is defined as 80%< substrate protein remaining %≤ 100%) | B ("B" is defined as 80%< substrate protein remaining %≤ 100%) | – | –
9 | O=C1CCN(N2Cc3cc(CN4CCN(c5ccc(C(F)(F)F)cn5)CC4)ccc3C2=O)C(=O)N1 [GT-05176, 1-(1-oxo-5-((4-(5-(trifluoromethyl)pyridin-2-yl)piperazin-1-yl)methyl)isoindolin-2-yl)dihydropyrimidine-2,4(1H,3H)-dione] | – | – | – | – | – | – | B ("B" is defined as 80%< substrate protein remaining %≤ 100%) | – | B ("B" is defined as 80%< substrate protein remaining %≤ 100%) | B ("B" is defined as 80%< substrate protein remaining %≤ 100%) | – | –
10 | O=C1CCN(N2Cc3cc(CN4CCN(c5ncccc5C(F)(F)F)CC4)ccc3C2=O)C(=O)N1 [GT-05174, 1-(1-oxo-5-((4-(3-(trifluoromethyl)pyridin-2-yl)piperazin-1-yl)methyl)isoindolin-2-yl)dihydropyrimidine-2,4(1H,3H)-dione] | – | – | – | – | – | – | – | B ("B" is defined as 80%< substrate protein remaining %≤ 100%) | B ("B" is defined as 80%< substrate protein remaining %≤ 100%) | B ("B" is defined as 80%< substrate protein remaining %≤ 100%) | – | –
11 | O=C1CCN(N2C(=O)c3ccc(CN4CCN(c5cccc(Cl)n5)CC4)cc3C2=O)C(=O)N1 [GT-05353, 5-((4-(6-chloropyridin-2-yl)piperazin-1-yl)methyl)-2-(2,4-dioxotetrahydropyrimidin-1(2H)-yl)isoindoline-1,3-dione] | – | – | – | – | – | – | B ("B" is defined as 80%< substrate protein remaining %≤ 100%) | B ("B" is defined as 80%< substrate protein remaining %≤ 100%) | B ("B" is defined as 80%< substrate protein remaining %≤ 100%) | B ("B" is defined as 80%< substrate protein remaining %≤ 100%) | A ("A" is defined as 0% ≤ substrate protein remaining % ≤ 80%) | –
12 | O=C1CCN(N2C(=O)c3ccc(CN4CCN(c5ncccc5F)CC4)cc3C2=O)C(=O)N1 [GT-05355, 2-(2,4-dioxotetrahydropyrimidin-1(2H)-yl)-5-((4-(3-fluoropyridin-2-yl)piperazin-1-yl)methyl)isoindoline-1,3-dione] | – | – | – | – | – | – | – | B ("B" is defined as 80%< substrate protein remaining %≤ 100%) | B ("B" is defined as 80%< substrate protein remaining %≤ 100%) | B ("B" is defined as 80%< substrate protein remaining %≤ 100%) | A ("A" is defined as 0% ≤ substrate protein remaining % ≤ 80%) | B ("B" is defined as 80%< substrate protein remaining %≤ 100%)
